The record followed here is US20090023731A1, “SOLUBLE EPOXIDE HYDROLASE INHIBITORS” (Arete Therapeutics, Inc., priority 2007, published 2009).

The first assay deals with soluble epoxide hydrolase (sEH). Put plainly: Fluorescent assay for mouse and human soluble epoxide hydrolase (CMNPC substrate). Format: biochemical. The note with it: inhibitor conc. 50 nM. The protocol: Recombinant mouse sEH (MsEH) and human sEH (HsEH) were produced in a baculovirus expression system as previously reported. […] The expressed proteins were purified from cell lysate by affinity chromatography. […] Protein concentration was quantified using the Pierce BCA assay using bovine serum albumin as the calibrating standard.
The IC50s for each inhibitor were according to the following procedure:
Bis/Tris HCl 25 mM pH 7.0 containing 0.1 mg/mL of BSA (buffer A) CMNPC at 0.25 mM in DMSO.
Mother solution of enzyme in buffer A (Mouse sEH at 6 μg/mL and Human sEH at 5 μg/mL). Inhibitor dissolved in DMSO at the appropriate concentration.
In a black 96 well plate, fill all the wells with 150 μL of buffer A.
Add 2 μL of DMSO in well A2 and A3, and then add 2 μL of inhibitor solution in A1 and A4 through A12.
Add […] of buffer A in row A, then mix several time and transfer […] to row B. Repeat this operation up to row H. The […] removed from row H is discarded.
Add […] of buffer A in column 1 and 2, then add […] of enzyme solution to column 3 to 12.
Incubate the plate for 5 minutes in the plate reader at 30° C.
During incubation prepare the working solution of substrate by mixing 3.68 mL of buffer A (4×0.920 mL) with 266 μL (2×133 μL) of substrate solution).
The velocities are used to analyze and calculate the IC50s.
With `O=C(CC12CC3CC(CC(C3)C1)C2)Nc1ccc(OCCCN2CCOCC2)cc1` [Compound 46, 2-Adamantan-1-yl-N-[4-(3-morpholin-4-yl-propoxy)-phenyl]-acetamide], the “% Inh” value stood at 93%.

For `O=C(Nc1ccc(F)cc1)Nc1cccc(OCCCN2CCOCC2)c1` [Compound 2, 1-(4-Fluoro-phenyl)-3-[3-(3-morpholin-4-yl-propoxy)-phenyl]-urea], the “% Inh” value worked out at 82%. Same read-out and setting: then `O=C(Nc1ccc(C(F)(F)F)cc1)Nc1ccc(F)c(OCCCN2CCOCC2)c1` [Compound 32, 1-[4-Fluoro-3-(3-morpholin-4-yl-propoxy)-phenyl]-3-(4-trifluoromethyl-phenyl)-urea], with 87%; and `O=C(Nc1ccc(OCCCN2CCOCC2)cc1)NC1CCCCC1` [Compound 45, 1-Cyclohexyl-3-[4-(3-morpholin-4-yl-propoxy)-phenyl]-urea], with 79%; and `O=C(Nc1cccc(OCCCN2CCOCC2)c1)NC12CC3CC(CC(C3)C1)C2` [Compound 47, 1-Adamantan-1-yl-3-[3-(3-morpholin-4-yl-propoxy)-phenyl]-urea], with 99%.

For `O=C(Nc1ccc(OC(F)(F)F)cc1)Nc1ccc(F)c(OCCCN2CCOCC2)c1` [Compound 33, 1-[4-Fluoro-3-(3-morpholin-4-yl-propoxy)-phenyl]-3-(4-trifluoromethoxy-phenyl)-urea], the “% Inh” value is 83%. In the case of `O=C(Nc1ccc(OC(F)(F)F)cc1)Nc1cccc(OCCCN2CCOCC2)c1` [Compound 28, 1-[3-(3-Morpholin-4-yl-propoxy)-phenyl]-3-(4-trifluoromethoxy-phenyl)-urea], the “% Inh” value was found to be 90%. Same read-out and setting: the value for `O=C(CC12CC3CC(CC(C3)C1)C2)NC1CCCC(OCCCN2CCOCC2)C1` (stereo not drawn) [Compound 49, 2-Adamantan-1-yl-N-[3-(3-morpholin-4-yl-propoxy)-cyclohexyl]-acetamide] was 79%; that for `O=C(Nc1cccc(OCCCN2CCOCC2)c1)NC1CCCCC1` [Compound 41, 1-Cyclohexyl-3-[3-(3-morpholin-4-yl-propoxy)-phenyl]-urea] was 96%; that for `O=C(Nc1ccc(F)c(OCCCN2CCOCC2)c1)NC12CC3CC(CC(C3)C1)C2` [Compound 53, 1-Adamantan-1-yl-3-[4-fluoro-3-(3-morpholin-4-yl-propoxy)-phenyl]-urea] was 92%. On to `O=C(CC1CCCCC1)Nc1cccc(OCCCN2CCOCC2)c1` [Compound 51, 2-Cyclohexyl-N-[3-(3-morpholin-4-yl-propoxy)-phenyl]-acetamide], for which the “% Inh” value is 61%.

Staying with this assay, now noted: inhibitor conc. 200 nM.
For the molecule `O=C(NCCc1ccc(OCc2ccccc2)cc1)NCCC12CC3CC(CC(C3)C1)C2` [Compound 72, 1-(4-(benzyloxy)phenethyl)-3-(adamantylethyl)urea], the “% Inh” value is 89%.

Staying with this assay, now noted: inhibitor conc. 500 nM.
Turning to `O=C(Nc1cccc(OCCCN2CCOCC2)c1)Nc1ccc(F)cc1F` [Compound 5, 1-(2,4-Difluoro-phenyl)-3-[3-(3-morpholin-4-yl-propoxy)-phenyl]-urea], the “% Inh” value is listed as 78%. Still for that read-out and setting: the value for `O=C(CC12CC3CC(CC(C3)C1)C2)Nc1ccc(F)c(OCCCN2CCOCC2)c1` [Compound 52, 2-Adamantan-1-yl-N-[4-fluoro-3-(3-morpholin-4-yl-propoxy)-phenyl]-acetamide] was 93%; that for `O=C(Nc1ccc(OCCN2CCOCC2)cc1)Nc1cccc(OCCCN2CCOCC2)c1` [Compound 18, 1-[4-(2-Morpholin-4-yl-ethoxy)-phenyl]-3-[3-(3-morpholin-4-yl-propoxy)-phenyl]-urea] was 66%; that for `O=C(Cc1ccc(Cl)cc1)Nc1ccc(OCCCN2CCOCC2)cc1` [Compound 20, 2-(4-Chloro-phenyl)-N-[4-(3-morpholin-4-yl-propoxy)-phenyl]-acetamide] was 72%. On the same count and under the same terms, the value for `O=C(Nc1ccc(F)cc1)Nc1ccc(F)c(OCCCN2CCOCC2)c1` [Compound 31, 1-[4-Fluoro-3-(3-morpholin-4-yl-propoxy)-phenyl]-3-(4-fluoro-phenyl)-urea] was 78%. Turning to `O=C(Cc1ccc(C(F)(F)F)cc1)Nc1ccc(OCCCN2CCOCC2)cc1` [Compound 27, N-[4-(3-Morpholin-4-yl-propoxy)-phenyl]-2-(4-trifluoromethyl-phenyl)-acetamide], the “% Inh” value was determined as 83%.

In the case of `O=C(Cc1ccc(OC(F)(F)F)cc1)Nc1cccc(OCCCN2CCOCC2)c1` [Compound 23, N-[3-(3-Morpholin-4-yl-propoxy)-phenyl]-2-(4-trifluoromethoxy-phenyl)-acetamide], the “% Inh” value came to 86%.

Consider `O=C(Nc1ccc(Oc2cccc(C(=O)O)c2)cc1)Nc1ccc(C(F)(F)F)cc1` [Compound 60, 3-(4-(3-(4-(trifluoromethyl)phenyl)ureido)phenoxy)benzoic acid], for which the “% Inh” value was 92%. For `O=C(Nc1cccc(OCCCN2CCOCC2)c1)c1ccc(C(F)(F)F)cc1` [Compound 36, N-[3-(3-Morpholin-4-yl-propoxy)-phenyl]-4-trifluoromethyl-benzamide], the “% Inh” value was found to be 79%.

For the molecule `O=C(Nc1ccc(Cl)cc1)Nc1ccc(F)c(OCCCN2CCOCC2)c1` [Compound 30, 1-(4-Chloro-phenyl)-3-[4-fluoro-3-(3-morpholin-4-yl-propoxy)-phenyl]-urea], the “% Inh” value is listed as 96%.

Consider `O=C(Cc1ccc(C(F)(F)F)cc1)Nc1cccc(OCCCN2CCOCC2)c1` [Compound 24, N-[3-(3-Morpholin-4-yl-propoxy)-phenyl]-2-(4-trifluoromethyl-phenyl)-acetamide], for which the “% Inh” value was found to be 88%.

Staying with this assay, now noted: inhibitor conc. 2000 nM.
Regarding `O=C(Nc1ccc(C(F)(F)F)cc1)Nc1cccc(Oc2ccc(C(=O)O)cc2)c1` [Compound 69, 4-(3-(3-(4-(trifluoromethyl)phenyl)ureido)phenoxy)benzoicacid], the “% Inh” value is listed as 100%. Regarding `O=C(Nc1ccc(C(F)(F)F)cc1)Nc1cccc(Oc2cccc(C(=O)O)c2)c1` [Compound 71, 3-(3-(3-(4-(trifluoromethyl)phenyl)ureido)phenoxy)benzoicacid], the “% Inh” value is reported as 98%. With `O=C(Nc1ccc(OC(F)(F)F)cc1)N[C@H]1CC[C@H](Oc2ccc(C(=O)O)cc2)CC1` [Compound 74, 4-((1r,4r)-4-(3-(4-(trifluoromethoxy)phenyl)ureido)cyclohexyloxy)benzoic acid], the “% Inh” value was found to be 100%. On the same count and under the same terms, the value for `O=C(Nc1ccc(Oc2ccc(C(=O)O)cc2)cc1)Nc1ccc(OC(F)(F)F)cc1` [Compound 64, 4-(4-(3-(4-(trifluoromethoxy)phenyl)ureido)phenoxy)benzoic acid] was 100%.

The same assay, now with this note: inhibitor conc. 5000 nM.
As to `CC(C)(C)NC(=O)Nc1cccc(OCCCN2CCOCC2)c1` [Compound 42, 1-tert-Butyl-3-[3-(3-morpholin-4-yl-propoxy)-phenyl]-urea], the “% Inh” value is reported as 79%. The same measure, in the same setting: the value for `O=C(Cc1ccc2c(c1)OCO2)Nc1cccc(OCCCN2CCOCC2)c1` [Compound 12, 2-Benzo[1,3]dioxol-5-yl-N-[3-(3-morpholin-4-yl-propoxy)-phenyl]-acetamide] was 87%; that for `CC(C)(C)CC(=O)Nc1cccc(OCCCN2CCOCC2)c1` [Compound 44, 3,3-Dimethyl-N-[3-(3-morpholin-4-yl-propoxy)-phenyl]-butyramide] was 70%.

In the case of `O=C(Cc1ccc(F)c(F)c1)Nc1cccc(OCCCN2CCOCC2)c1` [Compound 19, 2-(3,4-Difluoro-phenyl)-N-[3-(3-morpholin-4-yl-propoxy)-phenyl]-acetamide], the “% Inh” value was determined as 92%. The same measure, in the same setting: then `O=C(Nc1cccc(OCCCN2CCOCC2)c1)Nc1c(F)c(F)c(F)c(F)c1F` [Compound 7, 1-[3-(3-Morpholin-4-yl-propoxy)-phenyl]-3-pentafluorophenyl-urea], with 87%; and `O=C(Nc1cccc(OCCCN2CCOCC2)c1)C1CCCCC1` [Compound 56, Cyclohexanecarboxylicacid [3-(3-morpholin-4-yl-propoxy)-phenyl]-amide], with 94%. Still for that read-out and setting: then `O=C(Cc1ccc(F)cc1)Nc1cccc(OCCCN2CCOCC2)c1` [Compound 11, 2-(4-Fluoro-phenyl)-N-[3-(3-morpholin-4-yl-propoxy)-phenyl]-acetamide], with 85%; and `CN(C)c1cccc(NC(=O)Nc2cccc(OCCCN3CCOCC3)c2)c1` [Compound 17, 1-(3-Dimethylamino-phenyl)-3-[3-(3-morpholin-4-yl-propoxy)-phenyl]-urea], with 95%. With `O=C(Cc1ccc(OC(F)(F)F)cc1)Nc1ccc(OCCCN2CCOCC2)cc1` [Compound 35, N-[4-(3-Morpholin-4-yl-propoxy)-phenyl]-2-(4-trifluoromethoxy-phenyl)-acetamide], the “% Inh” value was 93%. In the case of `O=C(Cc1ccccc1)Nc1ccc(OCCCN2CCOCC2)cc1` [Compound 25, N-[4-(3-Morpholin-4-yl-propoxy)-phenyl]-2-phenyl-acetamide], the “% Inh” value is recorded as 80%.

Still in this assay, the particulars now being: inhibitor conc. 50000 nM.
With `O=C(Cc1cccnc1)Nc1cccc(OCCCN2CCOCC2)c1` [Compound 13, N-[3-(3-Morpholin-4-yl-propoxy)-phenyl]-2-pyridin-3-yl-acetamide], the “% Inh” value is 75%. Same read-out and setting: then `O=C(Nc1cccnc1)Nc1cccc(OCCCN2CCOCC2)c1` [Compound 16, 1-[3-(3-Morpholin-4-yl-propoxy)-phenyl]-3-pyridin-3-yl-urea], with 95%.
